Laboratory results from patent US7910559B2, “Decladinosyl-macrolides with anti-inflammatory activity” (GlaxoSmithKline istrazivacki centar Zagreb d.o.o., priority 2005, dated 2011).
Read-outs that look alike come from different tables or passages of the source.

Columns and labels:
Assay type in all cases: cell-based
THP-1 = conditions: human, 24 h
Method: (§1) Anti-inflammatory activity of compounds, i.e. observed inhibition of cytokine production and inhibition of proliferation in vitro, is not a consequence of their cytotoxicity.
(§2) Measurement of the succinate dehydrogenase activity in living cells was performed in order to assess the cytotoxicity of compounds of the invention. Cells were cultured for 24 hours in RPMI medium as described above at 37° C., in the presence of the tested compounds at concentrations of 50 μM and 12.5 μM. Afterwards, MTT [3-(4,5-dimethylthiazole-2-yl)-2,5-diphenyl tetrazolium bromide] (Promega, USA) as detection reagent was added and incubated for 0.5-2 hours. The amount of produced MTT-Formazan was determined spectrophotometrically at 490 nm (Mosmann, J. Immunol. Methods, 1983, 65: 55-63).
(§3) Percentage of viable cells was calculated using the following formula: % viable cells=[…]

A549 = conditions: human, 24 h
Method: as §1, §2, §3

Hep G2 = conditions: human, 24 h
Method: as §1, §2, §3

human IL-1β = experiment: Inhibition of IL-1β production by stimulated human peripheral blood leukocytes in vitro (ELISA); conditions: Homo sapiens, Leukocyte, PBL, read-out: Percentage of inhibition of IL-1β production; for inhibition at 10 µM: compound 10 μM; for inhibition at 50 µM: compound 50 μM
Method: (§4) Substances, used in in vitro experiments, were dissolved in dimethyl sulfoxide (DMSO) (Kemika, Croatia) at concentrations of 50 mM and 10 mM and were further diluted to the final concentrations of […] in 1 mL Dulbecco's modified Eagle medium (DMEM) supplemented with 1% heat inactivated fetal bovine serum (FBS), 1% glutamax, 50 U/ml penicillin, 50 μg/ml streptomycin and 2.5 μg/mL Fungizone (amphotericin B). Media and all media supplements were purchased from Gibco, Australia, except FBS that was from Sigma, USA.
(§5) Peripheral blood leukocytes (PBL) were obtained from venous blood of healthy volunteers by sedimentation on 2% dextran T-500 (Amersham Biosciences, USA) and subsequent centrifugations of leukocyte-rich plasma.
(§6) Peripheral blood leukocytes (PBL), isolated as described above, were seeded in a 48-well plate at a concentration of 3-5×10^6 cell per well in culture medium consisting of RPMI 1640 medium (Institute of Immunology, Croatia) supplemented with 10% heat-inactivated fetal calf serum (FCS, Biowhittaker, USA), 100 U/ml penicillin (Gibco, Australia), 100 μg/ml streptomycin (Gibco, Australia) and 2 mM L-glutamine (Gibco, Australia), and preincubated with the tested compounds for 2 h at 37° C., in an atmosphere of 5% CO2, and 90% humidity. Afterwards, stimuli (Sigma, USA) were added to a final concentration of 2 μg/mL lipopolysaccharide (LPS), 1 μg/mL phorbol 12-myristate 13-acetate (PMA) or 120 μg/mL zymosan. Samples were incubated overnight under conditions described above. At the end of incubation supernatants were transferred to eppendorf tubes and centrifuged for 10 min at 1500 g. Concentrations of human TNF-α, IL-1β, IL-6 and IL-8 were determined in cell supernatants by sandwich ELISA, using capture and detection antibodies (R&D, USA) according to manufacturer's recommendations.
(§7) Inhibition (as percentage) was calculated using the following formula: % inhibition=(1−concentration of cytokines in sample/concentration of cytokines in positive control)×100 where “positive control” refers to stimulated samples not treated with substances.

human TNF-α = experiment: Inhibition of TNF-α production by stimulated human peripheral blood leukocytes in vitro (ELISA); conditions: Homo sapiens, Leukocyte, PBL, read-out: Percentage of inhibition of TNF-α production; for inhibition at 10 µM: compound 10 μM; for inhibition at 50 µM: compound 50 μM
Method: as §4, §5, §6, §7

human IL-6 = experiment: Inhibition of IL-6 production by stimulated human peripheral blood leukocytes in vitro (ELISA); conditions: Homo sapiens, Leukocyte, PBL, read-out: Percentage of inhibition of IL-6 production; for inhibition at 10 µM: compound 10 μM; for inhibition at 50 µM: compound 50 μM
Method: as §4, §5, §6, §7

human IL-8 = experiment: Inhibition of IL-8 production by stimulated human peripheral blood leukocytes in vitro (ELISA); conditions: Homo sapiens, Leukocyte, PBL, read-out: Percentage of inhibition of IL-8 production; for inhibition at 10 µM: compound 10 μM; for inhibition at 50 µM: compound 50 μM
Method: as §4, §5, §6, §7

Structure (SMILES)	Percentage of viable cells after treatment (THP-1; 12.5 μM) [%]	Percentage of viable cells after treatment (THP-1; 50 μM) [%]	Percentage of viable cells after treatment (A549; 12.5 μM) [%]	Percentage of viable cells after treatment (A549; 50 μM) [%]	Percentage of viable cells after treatment (Hep G2; 12.5 μM) [%]	Percentage of viable cells after treatment (Hep G2; 50 μM) [%]	inhibition at 10 µM (human IL-1β; LPS stimulation) [%]	inhibition at 50 µM (human IL-1β; LPS stimulation) [%]	inhibition at 10 µM (human IL-1β; PMA stimulation) [%]	inhibition at 50 µM (human IL-1β; PMA stimulation) [%]	inhibition at 10 µM (human IL-1β; zymosan stimulation) [%]	inhibition at 50 µM (human IL-1β; zymosan stimulation) [%]	inhibition at 10 µM (human TNF-α; LPS stimulation) [%]	inhibition at 50 µM (human TNF-α; LPS stimulation) [%]	inhibition at 10 µM (human TNF-α; PMA stimulation) [%]	inhibition at 50 µM (human TNF-α; PMA stimulation) [%]	inhibition at 10 µM (human TNF-α; zymosan stimulation) [%]	inhibition at 50 µM (human TNF-α; zymosan stimulation) [%]	inhibition at 10 µM (human IL-6; LPS stimulation) [%]	inhibition at 50 µM (human IL-6; LPS stimulation) [%]	also measured
CC[C@H]1OC(=O)[C@H](C)[C@@H](OC(=O)CCN2CCCN(CCCN3CCCC3)CC2)[C@H](C)[C@@H](O[C@@H]2O[C@H](C)C[C@H](N(C)C)[C@H]2O)[C@](C)(OC)C[C@@H](C)C(=O)N[C@H](C)[C@@H](O)[C@]1(C)O [Example 24, 6-O-Methyl-3-O-decladinosyl-3-O{3-[4-(3-Pyrrolidin-1-yl-propyl)-[1,4]diazepan-1-yl]-propionyl}-9a-aza-9a-homoerythromycin A]	100	100	>90	>90	>95	100	65	98	84	98	70	100	0	91	65	68	0	92	8	98	inhibition at 10 µM (human IL-6; PMA stimulation): 48%; inhibition at 50 µM (human IL-6; PMA stimulation): 89%; inhibition at 10 µM (human IL-6; zymosan stimulation): 33%; inhibition at 50 µM (human IL-6; zymosan stimulation): 100%; inhibition at 10 µM (human IL-8; LPS stimulation): 0%; inhibition at 50 µM (human IL-8; LPS stimulation): 94%; inhibition at 10 µM (human IL-8; PMA stimulation): 3%; inhibition at 50 µM (human IL-8; PMA stimulation): 81%; inhibition at 10 µM (human IL-8; zymosan stimulation): 0%; inhibition at 50 µM (human IL-8; zymosan stimulation): 92%
C=CC(=O)O[C@H]1[C@H](C)[C@@H](O[C@@H]2O[C@H](C)C[C@H](N(C)C)[C@H]2O)[C@](C)(OC)C[C@@H](C)C(=O)[C@H](C)[C@@H](O)[C@](C)(O)[C@@H](CC)OC(=O)[C@@H]1C [Example 4, 3-O-Propenoyl-3-O-decladinosyl-6-O-methyl-erythromycin A]	100	100	>95	>95	>85	>95	75	100	97	100	61	100	0	100	69	100	0	100	37	100	inhibition at 10 µM (human IL-6; PMA stimulation): 96%; inhibition at 50 µM (human IL-6; PMA stimulation): 100%; inhibition at 10 µM (human IL-6; zymosan stimulation): 55%; inhibition at 50 µM (human IL-6; zymosan stimulation): 100%; inhibition at 10 µM (human IL-8; LPS stimulation): 29%; inhibition at 50 µM (human IL-8; LPS stimulation): 100%; inhibition at 10 µM (human IL-8; PMA stimulation): 55%; inhibition at 50 µM (human IL-8; PMA stimulation): 90%; inhibition at 10 µM (human IL-8; zymosan stimulation): 10%; inhibition at 50 µM (human IL-8; zymosan stimulation): 100%
CC[C@H]1OC(=O)[C@H](C)[C@@H](OC(=O)CCN2CCN(CCN(CC)CC)CC2)[C@H](C)[C@@H](O[C@@H]2O[C@H](C)C[C@H](N(C)C)[C@H]2O)[C@](C)(OC)C[C@@H](C)C(=O)N[C@H](C)[C@@H](O)[C@]1(C)O [Example 18, 6-O-Methyl-3-O-decladinosyl-3-O-{3-[4-(2-Diethylamino-ethyl)-piperazin-1-yl]-propionyl}-9a-aza-9a-homoerythromycin A]	100	100	100	100	>95	100	44	73	66	87	32	76	7	0	50	82	12	0	9	50	inhibition at 10 µM (human IL-6; PMA stimulation): 53%; inhibition at 50 µM (human IL-6; PMA stimulation): 47%; inhibition at 10 µM (human IL-6; zymosan stimulation): 18%; inhibition at 50 µM (human IL-6; zymosan stimulation): 47%; inhibition at 10 µM (human IL-8; LPS stimulation): 1%; inhibition at 50 µM (human IL-8; LPS stimulation): 30%; inhibition at 10 µM (human IL-8; PMA stimulation): 16%; inhibition at 50 µM (human IL-8; PMA stimulation): 13%; inhibition at 10 µM (human IL-8; zymosan stimulation): 3%; inhibition at 50 µM (human IL-8; zymosan stimulation): 21%
CC[C@H]1OC(=O)[C@H](C)[C@@H](OC(=O)CCN(C)CCO)[C@H](C)[C@@H](O[C@@H]2O[C@H](C)C[C@H](N(C)C)[C@H]2O)[C@](C)(OC)C[C@@H](C)C(=O)N[C@H](C)[C@@H](O)[C@]1(C)O [Example 23, 6-O-Methyl-3-O-decladinosyl-3-O-{3-[(2-Hydroxy-ethyl)-methyl-amino]-propionyl}-9a-aza-9a-homoerythromycin A]	100	100	100	>95	100	100	73	100	81	98	70	100	0	97	58	79	0	96	8	100	inhibition at 10 µM (human IL-6; PMA stimulation): 51%; inhibition at 50 µM (human IL-6; PMA stimulation): 92%; inhibition at 10 µM (human IL-6; zymosan stimulation): 26%; inhibition at 50 µM (human IL-6; zymosan stimulation): 100%; inhibition at 10 µM (human IL-8; LPS stimulation): 0%; inhibition at 50 µM (human IL-8; LPS stimulation): 95%; inhibition at 10 µM (human IL-8; PMA stimulation): 0%; inhibition at 50 µM (human IL-8; PMA stimulation): 90%; inhibition at 10 µM (human IL-8; zymosan stimulation): 0%; inhibition at 50 µM (human IL-8; zymosan stimulation): 98%
